# Data published in patent US4364926A, “Novel alkaline protease M3 method for the preparation thereof and dental caries-prophylactic composition containing the same” (Dainippon Pharmaceutical Co., Ltd., priority 1980, dated 1982).
# Where a name gives a salt, the structure may show the parent alone. Read-outs that look alike come from different tables or passages of the source.
# Tested on: alkaline protease M3 from Streptomyces globisporus B-1829 strain (ATCC 21553)
# Assay: Protease activity (casein hydrolysis) in the presence of additives
# Format: biochemical
# [1] = additive 10^-3 M, protease activity, no additive = 100
Compound,Relative activity (%),Relative activity (%) [1],other results
O=C(O)CI [Iodoacetic acid],118%,,Effect by additive on activity (in words): substantially not inhibited; Inhibition of protease activity (in words): substantially not inhibited
O=C1O[C@H]([C@@H](O)CO)C(O)=C1O [L-Ascorbic acid],,110%,
"O=C1CCC(=O)N1Br [NBS, N--Bromosuccinimide]",,85%,"Relative activity (%) (additive 10^-4 M, protease activity, no additive = 100): 0%; Inhibition of protease activity (in words) (additive in an amount of 10^-4 M): completely inhibited"
NNC(N)=O [Semicarbazide hydrochloride],116%,,
O=C(O)CCC(=O)O [Succinic acid],,113%,
NC(N)=S [Thiourea],119%,,
